{"source": "ChEMBL document CHEMBL1154489", "about": "“Isolation, structure and antibacterial activity of pleosporone from a pleosporalean ascomycete discovered by using antisense strategy” (Bioorg Med Chem, 2009)", "key": {"Staphylococcus aureus [1]": {"test_system": "Staphylococcus aureus", "assay": "Antimicrobial activity against methicillin-sensitive Staphylococcus aureus ATCC 29213 after 20 hrs by twofold serial dilution method", "assay_type": "functional", "details": "ATCC 29213, 20 h"}, "Staphylococcus aureus [2]": {"test_system": "Staphylococcus aureus", "assay": "Antibacterial activity against Staphylococcus aureus RN450 bearing RPSD antisense S1-782B plasmid after 18 hrs by rpsD sensitized two-plate differential sensitivity assay", "assay_type": "functional, organism-based"}, "Staphylococcus aureus [3]": {"test_system": "Staphylococcus aureus", "assay": "Antibacterial activity against Staphylococcus aureus RN450 bearing RPSD antisense S1-782B plasmid at 1000 ug/mL after 18 hrs by rpsD sensitized two-plate differential sensitivity assay", "assay_type": "functional", "details": "RN450, 18 h, read-out: IZ"}, "Staphylococcus aureus [4]": {"test_system": "Staphylococcus aureus", "assay": "Antibacterial activity against wild-type Staphylococcus aureus RN450 at 1000 ug/mL after 18 hrs by rpsD sensitized two-plate differential sensitivity assay", "assay_type": "functional", "details": "RN450, 18 h, read-out: IZ"}, "Staphylococcus aureus [5]": {"test_system": "Staphylococcus aureus", "assay": "Antibacterial activity against Staphylococcus aureus RN450 bearing RPSD antisense S1-782B plasmid assessed as faint zone of clearance at 31.25 ug/mL after 18 hrs by rpsD sensitized two-plate differential sensitivity assay", "assay_type": "functional", "details": "RN450, 18 h, read-out: IZ"}, "Staphylococcus aureus [6]": {"test_system": "Staphylococcus aureus", "assay": "Antibacterial activity against wild-type Staphylococcus aureus RN450 assessed as faint zone of clearance at 31.25 ug/mL after 18 hrs by rpsD sensitized two-plate differential sensitivity assay", "assay_type": "functional, organism-based"}, "Staphylococcus aureus [7]": {"test_system": "Staphylococcus aureus", "assay": "Antibacterial activity against Staphylococcus aureus RN450 bearing RPSD antisense S1-782B plasmid assessed as minimum detection concentration after 18 hrs by rpsD sensitized two-plate differential sensitivity assay", "assay_type": "functional"}, "Staphylococcus aureus [8]": {"test_system": "Staphylococcus aureus", "assay": "Antimicrobial activity against methicillin-sensitive Staphylococcus aureus MB2865 after 20 hrs by twofold serial dilution method", "assay_type": "functional"}, "Staphylococcus aureus [9]": {"test_system": "Staphylococcus aureus", "assay": "Antimicrobial activity against methicillin-sensitive Staphylococcus aureus MB2865 after 20 hrs by twofold serial dilution method in presence of 50% human serum", "assay_type": "functional"}, "Streptococcus pneumoniae [10]": {"test_system": "Streptococcus pneumoniae", "assay": "Antimicrobial activity against drug-sensitive Streptococcus pneumoniae CL2883 in CAMHB medium containing 2.5% horse blood after 20 hrs by twofold serial dilution method", "assay_type": "functional"}, "Streptococcus pneumoniae [11]": {"test_system": "Streptococcus pneumoniae", "assay": "Antimicrobial activity against drug-sensitive Streptococcus pneumoniae CL2883 in isosensitet medium after 20 hrs by twofold serial dilution method", "assay_type": "functional"}, "Enterococcus faecalis": {"test_system": "Enterococcus faecalis", "assay": "Antimicrobial activity against vancomycin-sensitive macrolide-resistant Enterococcus faecalis CL8516 after 20 hrs by twofold serial dilution method", "assay_type": "functional"}, "Bacillus subtilis": {"test_system": "Bacillus subtilis", "assay": "Antimicrobial activity against wild-type Bacillus subtilis MB964 after 20 hrs by twofold serial dilution method", "assay_type": "functional"}, "Haemophilus influenzae": {"test_system": "Haemophilus influenzae", "assay": "Antimicrobial activity against drug-sensitive Haemophilus influenzae MB4572 after 20 hrs by twofold serial dilution method", "assay_type": "functional"}, "Escherichia coli [12]": {"test_system": "Escherichia coli", "assay": "Antimicrobial activity against wild-type Escherichia coli MB2884 after 20 hrs by twofold serial dilution method", "assay_type": "functional"}, "Escherichia coli [13]": {"test_system": "Escherichia coli", "assay": "Antimicrobial activity against Escherichia coli MB5746 envA1, tolC mutant after 20 hrs by twofold serial dilution method", "assay_type": "functional"}, "Candida albicans": {"test_system": "Candida albicans", "assay": "Antimicrobial activity against wild-type Candida albicans MY1055 after 20 hrs by twofold serial dilution method", "assay_type": "functional", "details": "MY1055, 20 h"}, "Staphylococcus aureus [14]": {"test_system": "Staphylococcus aureus", "assay": "Antimicrobial activity against methicillin-sensitive Staphylococcus aureus ATCC 29213 at 16 ug/mL after 20 hrs by twofold serial dilution method", "assay_type": "functional"}, "Staphylococcus aureus [15]": {"test_system": "Staphylococcus aureus", "assay": "Antimicrobial activity against methicillin-sensitive Staphylococcus aureus MB2865 at 4 ug/mL after 20 hrs by twofold serial dilution method", "assay_type": "functional"}, "Streptococcus pneumoniae [16]": {"test_system": "Streptococcus pneumoniae", "assay": "Antimicrobial activity against drug-sensitive Streptococcus pneumoniae CL2883 in isosensitet medium at 2 ug/mL after 20 hrs by twofold serial dilution method", "assay_type": "functional"}, "HeLa": {"test_system": "HeLa", "assay": "Cytotoxicity against human HeLa cells", "assay_type": "functional, cell-based"}, "Staphylococcus aureus [17]": {"test_system": "Staphylococcus aureus", "assay": "Inhibition of RNA synthesis in Staphylococcus aureus assessed as [3H]uracil incorporation by scintillation counting", "assay_type": "functional, organism-based"}, "Staphylococcus aureus [18]": {"test_system": "Staphylococcus aureus", "assay": "Inhibition of DNA synthesis in Staphylococcus aureus assessed as [3H]thymidine incorporation by scintillation counting", "assay_type": "functional, organism-based"}, "Staphylococcus aureus [19]": {"test_system": "Staphylococcus aureus", "assay": "Inhibition of protein synthesis in Staphylococcus aureus assessed as [3H]leucine incorporation by scintillation counting", "assay_type": "functional, organism-based"}, "Staphylococcus aureus [20]": {"test_system": "Staphylococcus aureus", "assay": "Ratio of IC50 for RNA synthesis to IC50 for DNA synthesis in Staphylococcus aureus", "assay_type": "functional"}, "Staphylococcus aureus [21]": {"test_system": "Staphylococcus aureus", "assay": "Ratio of IC50 for RNA synthesis to IC50 for protein synthesis in Staphylococcus aureus", "assay_type": "functional"}}, "note": "Calls of active or inactive are those of the source. The rule behind the calls is not given here."}
{"compound": "Cc1cc(O)c2c(c1)C(=O)C1=C(C2=O)[C@@H](O)[C@@H](O)[C@@H](O)C1", "note": "[PLEOSPORONE]", "values": [{"measurement": "MIC", "setting": "Staphylococcus aureus [1]", "result": "> 64", "unit": "µg/mL"}, {"measurement": "MIC80", "setting": "Staphylococcus aureus [1]", "result": 4, "unit": "µg/mL"}, {"measurement": "Activity", "setting": "Staphylococcus aureus [2]", "result": "Dose-dependent effect"}, {"measurement": "zone of inhibition at 1000 µg/mL", "setting": "Staphylococcus aureus [3]", "result": 21.8, "unit": "mm"}, {"measurement": "zone of inhibition at 1000 µg/mL", "setting": "Staphylococcus aureus [4]", "result": 19.2, "unit": "mm"}, {"measurement": "zone of inhibition at 31.25 µg/mL", "setting": "Staphylococcus aureus [5]", "result": 9, "unit": "mm"}, {"measurement": "Activity", "setting": "Staphylococcus aureus [6]", "result": "inactive"}, {"measurement": "Activity", "setting": "Staphylococcus aureus [7]", "result": 31.25, "unit": "µg/mL"}, {"measurement": "MIC", "setting": "Staphylococcus aureus [8]", "result": 64, "unit": "µg/mL"}, {"measurement": "MIC", "setting": "Staphylococcus aureus [9]", "result": "> 64", "unit": "µg/mL"}, {"measurement": "MIC", "setting": "Streptococcus pneumoniae [10]", "result": 4, "unit": "µg/mL"}, {"measurement": "MIC", "setting": "Streptococcus pneumoniae [11]", "result": 4, "unit": "µg/mL"}, {"measurement": "MIC", "setting": "Enterococcus faecalis", "result": 64, "unit": "µg/mL"}, {"measurement": "MIC", "setting": "Bacillus subtilis", "result": 8, "unit": "µg/mL"}, {"measurement": "MIC", "setting": "Haemophilus influenzae", "result": 1, "unit": "µg/mL"}, {"measurement": "MIC", "setting": "Escherichia coli [12]", "result": "> 64", "unit": "µg/mL"}, {"measurement": "MIC", "setting": "Escherichia coli [13]", "result": 16, "unit": "µg/mL"}, {"measurement": "MIC", "setting": "Candida albicans", "result": "> 64", "unit": "µg/mL"}, {"measurement": "Activity", "setting": "Staphylococcus aureus [14]", "result": 80, "unit": "%"}, {"measurement": "Activity", "setting": "Staphylococcus aureus [15]", "result": 80, "unit": "%"}, {"measurement": "Activity", "setting": "Streptococcus pneumoniae [16]", "result": 80, "unit": "%"}, {"measurement": "IC50", "setting": "HeLa", "result": 0.23, "unit": "µg/mL"}, {"measurement": "IC50", "setting": "Staphylococcus aureus [17]", "result": 1.3, "unit": "µg/mL"}, {"measurement": "IC50", "setting": "Staphylococcus aureus [18]", "result": 8.4, "unit": "µg/mL"}, {"measurement": "IC50", "setting": "Staphylococcus aureus [19]", "result": 15.4, "unit": "µg/mL"}, {"measurement": "Ratio IC50", "setting": "Staphylococcus aureus [20]", "result": 6}, {"measurement": "Ratio IC50", "setting": "Staphylococcus aureus [21]", "result": 6}]}
